In patent US4524070A, “Aminated derivatives of pyridazine substituted in 6 position by a heterocycle or an alicycle and compositions, said derivatives being active on the central nervous system” (Sanofi, priority 1983, dated 1985):
pIC50: −log10 of the molar value.

Assays:
[1] = test system: ptosis induced by reserpine; test: Antagonism of ptosis induced by reserpine; format: in vivo, mouse (female CDI Charles River); conditions: Mus musculus, ip, simultaneous with reserpine 2 mg/kg i.v.; read 1 hour after; batches of 10 mice
Experimental: Antagonism of ptosis induced by reserpine This test described by GOURET (Journal de Pharmacologie, Paris, 1973, 4 (1), 105-128) was carried out on the female CDI (Charles River) mouse weighing 20±1 g. Reserpine induces a ptosis 1 hour after its intravenous administration; certain antidepressants oppose this ptosis. The following protocol was chosen. The substances to be studied were administered i.p. The reserpine was administered simultaneously by the intravenous route at the dose of 2 mg/kg. 1 hour after administration of reserpine, the number of animals not presenting ptosis was noted. This test was carried out on batches of 10 mice and the percentage of animals not presenting ptosis was determined. The results are expressed in effective dose 50 (ED50) or dose preventing ptosis in 50% of the animals treated.

dopaminergic activity = test: Rotations test: behaviour of rotation after unilateral lesion of the striatum (dopaminergic activity); format: in vivo, mouse (female Charles River CDI); conditions: 1 hour after administration, counted for 2 minutes
Experimental: This was studied by analysis of the behaviour of rotation in the mouse after unilateral lesion of the striatum (P. Protais et al., J. Pharmacol., 1976, 7, 251).
Female Charles River CDI mice weighing from 20 to 24 g were previously subjected to a unilateral lesion of the striatum by stereotaxic injection of 6-hydroxydopamine at the rate of 8 mcg per animal. One week after this operation, the products to be studied were administered by the intraperitoneal route to groups of 7 mice. 1 hour after administration of the product, the number of rotations is determined for a period of 2 minutes. The rotations ispilateral with respect to the lesion are counted positively and the contralateral rotations are counted negatively.
The algebraic sum of the rotations for a group of treated animals is compared with that of the group of control animals having received only the vehicle (physiological serum).
The results are expressed in % variation of the rotations of the treated animals with respect to the control animals.

[2] = test system: central serotoninergic transmission; test: Potentialization of the head twitches induced by 5-hydroxytryptophane (5-HTP test); format: in vivo, mouse (female CDI Charles River); conditions: 1 hour before 5-hydroxytryptophane 200 mg/kg i.p., % with respect to control mice
Experimental: Potentialization of the head twitches induced by 5-hydroxytryptophane
The 5-hydroxytryptophane, precursor of the 5-hydroxytryptamine, induces in the mouse typical behaviour characterized by sudden head twitches.
At time zero, the product to be studied is administered by the intraperitoneal route then, 1 hour afterwards, a single dose (200 mg/kg) of 1-5-hydroxytryptophane in suspension in distilled water is in turn administered by the same route. Each animal (female CDI Charles River mouse weighing from 22 to 24 g) is immediately placed in a cylindrical glass beaker. The number of head twitches is counted for 20 minutes.
For each dose of the product to be tested, batches of 10 animals are experimented on, in comparison with a control batch which receives only the vehicle.
The results are expressed in % with respect to the average score obtained in the control mice.

[3] = target: cholinergic receptors of muscarinic type; format: binding; conditions: rat cerebra without cerebellum, 0.05 nM QNB (^3 H), 25° C., 1 hour, pH 7.4; read-out: Bond with QNB (^3 H) IC50
monoamine oxydase A = target: T1, monoamine oxydase A (Rattus norvegicus, UniProt P21396); test: Measurement of the MAO A activity in vitro; format: biochemical; conditions: rat striatum, 14C 5-hydroxytryptamine 480 μM, pH 7.40, 10 minutes
T1 construct: using the striatum of rate as source of enzyme; from tissue; host or cells: rat striatum homogenate
T1 sequence (P21396 1-526): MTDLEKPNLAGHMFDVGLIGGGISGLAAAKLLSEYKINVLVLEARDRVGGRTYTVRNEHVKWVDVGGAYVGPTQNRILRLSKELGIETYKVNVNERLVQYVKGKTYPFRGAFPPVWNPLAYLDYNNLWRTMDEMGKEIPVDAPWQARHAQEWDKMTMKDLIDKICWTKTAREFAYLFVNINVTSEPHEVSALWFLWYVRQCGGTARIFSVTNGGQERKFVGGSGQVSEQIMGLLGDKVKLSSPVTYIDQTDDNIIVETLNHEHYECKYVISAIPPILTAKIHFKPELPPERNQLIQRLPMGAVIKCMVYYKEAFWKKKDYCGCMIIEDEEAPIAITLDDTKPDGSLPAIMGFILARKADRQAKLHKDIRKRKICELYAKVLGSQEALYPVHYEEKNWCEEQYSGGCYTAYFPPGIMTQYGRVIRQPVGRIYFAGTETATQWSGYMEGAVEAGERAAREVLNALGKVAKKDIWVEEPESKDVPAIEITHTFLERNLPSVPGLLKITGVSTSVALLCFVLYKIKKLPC
Experimental: Measurement of the MAO A activity in vitro
After dissection, the tissues are homogenized in 16 volumes (weight per volume) of iced phosphate buffer (0.1M, pH=7.40). […] The acid metabolites are extracted in 7 ml of a toluene/ethyl acetate (1:1, vol/vol) mixture then counted by liquid scintillation. The concentration of the product tested which inhibits the control activity by 50% (I.C.50) is determined graphically.

[4] = dose 10 mg/kg i.p., result in words

Cc1cc(-c2cccs2)nnc1NCCN1CCOCC1.Cl.Cl [CM 30387, 3-morpholinoethylamino-4-methyl-6-(2-thienyl)pyridazine, dihydrochloride]
ED50 [1]: 4.8 mg/kg | Rotations test % variation (dopaminergic activity; [4]): Inactive | 5-HTP test % variation ([2]; dose 8 mg/kg i.p., **p 0.01): 632% | pIC50 [3]: 4.62 | MAO A Inhibition IC50 (monoamine oxydase A): 10 mg/kg

Cc1cc(-c2ccsc2)nnc1NCCN1CCOCC1.Cl.Cl [CM 30388, 3-morpholinoethylamino-4-methyl-6-(3-thienyl)-pyridazine, dihydrochloride]
ED50 [1]: 10.3 mg/kg | Rotations test % variation (dopaminergic activity; [4]): Inactive | 5-HTP test % variation ([2]; dose 8 mg/kg i.p., **p 0.01): 647% | pIC50 [3]: 4.74 | MAO A Inhibition IC50 (monoamine oxydase A): 7.8 mg/kg

Cc1cc(C2CCCCC2)nnc1NCCN1CCOCC1.Cl.Cl [CM 30390, 3-morpholinoethylamino-4-methyl-6-cyclohexyl-pyridazine; dihydrochloride]
ED50 [1]: 4.5 mg/kg | Rotations test % variation (dopaminergic activity; [4]): Inactive | 5-HTP test % variation ([2]; dose 7.5 mg/kg i.p., *p 0.05): 219% | pIC50 [3]: 4.85

Cc1cc(-c2ccccc2)nnc1NCCN1CCOCC1 [Minaprine, reference compound]
ED50 [1]: 5 mg/kg | Rotations test % variation (dopaminergic activity; dose 0.5 mg/kg i.p., vs control animals, **p 0.01): -79% | 5-HTP test % variation ([2]; dose 10 mg/kg i.p., *p 0.05): 257% | pIC50 [3]: 4.00 | MAO A Inhibition IC50 (monoamine oxydase A): 16 mg/kg
